In this experiment the test system is patients with symptoms of presbycusis. Nature of the experiment: Administration of FTIDC to patients with presbycusis (Example 5). Format: in vivo, human. The following applies: person; for hearing threshold, left ear / hearing threshold, right ear: after 14 days. As for the experimental part: A person presents with symptoms of presbycusis, including moderate loss of higher frequency (above 2000 Hz) hearing (50 decibel threshold) in both ears. The person is administered two drops per ear twice daily of a topical otic formulation comprising 10 ug/ml of FTIDC in a phosphate-buffered saline and further comprising 0.25% the carboxyvinyl water swellable gelling agent, Carbopol 934P; i.e., about […] of FTIDC per ear per dosing. After 14 days, the patient is tested by an audiologist. The threshold is lowered to 35 decibels right ear and 40 decibels left ear.
A person presents with symptoms of presbycusis, including loss of moderately high frequency (above 1000 Hz) hearing (40 decibel threshold right ear and 35 decibel threshold left ear). The person is administered an oral formulation 4 times per day comprising 2 ug per dose of FTIDC. The extended release capsule comprises a matrix of 10% by weight hydroxypropyl methylcellulose (e.g., Methocel®; Dow Chemical Company, U.S.A), and 50% by weight of a cornstarch filler. After 14 days, the threshold is lowered to 35 decibels right ear and 25 decibels left ear.
A person presents with symptoms of presbycusis, including loss of hearing in the 500 to above 2000 Hz range. The person is implanted with an Alset® osmotic pump adapted for cochlear delivery; see e.g., Richardson, R. T., Noushi, F., O'Leary, S. Inner ear therapy for neural preservation. AUDIOLOGY AND NEURO-OTOLOGY 2006; 11(6): 343-356. The pump is supplied with an aqueous sterile solution comprising FTIDC. The pump delivers a dose of 10 ug/hour of the modulator.

[1] abbreviates: higher frequency (above 2000 Hz) loss, 50 decibel threshold before, topical otic drops 10 ug/ml twice daily.

Consider `Cc1c(C2=CCN(C(=O)N(C)C(C)C)CC2)nnn1-c1cccnc1F` [FTIDC, 4-[1-(2-fluoropyridin-3-yl)-5-methyl-1H-1,2,3-triazol-4-yl]-N-isopropyl-N-methyl-3,6-dihydropyridine-1(2H)-carboxamide], for which the “hearing threshold, left ear” value (above 1000 Hz loss, 35 decibel threshold before, oral extended release capsule 2 ug per dose 4 times per day) was found to be 25 decibels and the “hearing threshold, left ear” value under setting [1] was 40 decibels. Further, the “hearing threshold, right ear” value is, setting by setting: (above 1000 Hz loss, 40 decibel threshold before, oral extended release capsule 2 ug per dose 4 times per day) 35 decibels; under setting [1], 35 decibels. Also, the hearing entry (loss in 500 to above 2000 Hz range, osmotic pump cochlear delivery 10 ug/hour, after 10 days) is recorded as “hearing is improved in both ears”.

The record behind these values is patent publication US9173864B2, “Treatment and/or prevention of inner ear conditions by modulation of a metabotropic glutamate receptor” (House Ear Institute, priority 2008, dated 2015).
